Like-named read-outs stand apart in the source and are kept apart here.
Assays:
[1] = tested on: MLE12 cells; test: Cell viability assay in MLE12 cells (resazurin); format: cell-based, mouse; conditions: TNF-α 20 ng/ml, resazurin added after 24 hours culture
Outline: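 MLE12 cells (7500 cells/well) were seeded onto 11-point duplicate compound dose-responses, with TNF-α (final 20 ng/ml) added after 1 hour at 37° C. After 24 hours, resazurin was added for 6 hours and resorufin fluorescence read (ex544 nm/em595 nm). EC50 values were calculated by curve fitting.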

[2] = molecular target: OGG1 (Homo sapiens (Human), UniProt O15527); test: In vitro OGG1 activity assay; format: biochemical; conditions: 800 pM OGG1 enzyme, 2 nM human APEX1, 10 nM 8-oxoA:C substrate
Chain of OGG1 (O15527 whole entry): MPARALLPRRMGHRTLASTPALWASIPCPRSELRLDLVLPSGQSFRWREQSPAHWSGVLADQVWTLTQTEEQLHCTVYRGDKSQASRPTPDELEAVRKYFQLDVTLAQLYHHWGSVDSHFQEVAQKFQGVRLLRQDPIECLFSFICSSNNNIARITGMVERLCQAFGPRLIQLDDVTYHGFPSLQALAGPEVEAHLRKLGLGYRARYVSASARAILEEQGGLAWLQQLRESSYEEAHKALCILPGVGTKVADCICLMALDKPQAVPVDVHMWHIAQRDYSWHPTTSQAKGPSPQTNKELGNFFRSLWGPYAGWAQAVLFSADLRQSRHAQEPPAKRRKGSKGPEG
Outline: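 Read-out is fluorescein fluorescence, with compounds in DMSO added first, then enzyme and substrate. OGG1 excises its substrate base from a quenched fluorophore-labelled duplex, and surplus APEX1 cuts the resulting apurinic site. The duplex then melts and fluorescence rises in proportion to glycosylase activity.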

[3] = tested on: CCL2; test: Mouse CCL2 assay in MLE12 cells; format: cell-based; conditions: MLE12 cells, TNF-α 20 ng/ml, supernatant after 30 hours, HTRF, read-out: CCL2 (EC50)
Outline: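 CCL2 in supernatants was quantified by two-antibody HTRF FRET, read at 620 and 665 nm after overnight RT incubation, with IC50 derived from delta ratios. Cells were SV40-transformed mouse MLE12, treated with duplicate 6-point compound series for 1 h before 30 h TNF-α (20 ng/ml final) stimulation.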

SMILES | IC50 ([1]; Mus musculus, MLE12, 24 h) [µM] | IC50 [2] [µM] | EC50 ([3]; Mus musculus, MLE12, 30 h) [µM] | IC50 [1] [µM] | EC50 [3] [µM]
COc1cc(NC(=O)[C@H]2CC[C@@H](n3c(=O)[nH]c4c(C5=CCN(C)CC5)cccc43)CC2)ccc1C [Example 312, Cis-N-(3-methoxy-4-methylphenyl)-4-[4-(1-methyl-1,2,3,6-tetrahydropyridin-4-yl)-2-oxo-2,3-dihydro-1H-1,3-benzodiazol-1-yl]cyclohexane-1-carboxamide] | 11 | 0.00294 | 28.5 |  | 
O=c1[nH]c2c(Br)cccc2n1[C@H]1CC[C@@H](C(=O)Nc2ccc(Cl)nc2)CC1 [Example 184, Cis-4-(4-bromo-2-oxo-2,3-dihydro-1H-1,3-benzodiazol-1-yl)-N-(6-chloropyridin-3-yl)cyclohexane-1-carboxamide] | 7.86 | 0.325 | 16.8 |  | 
Cc1ccc(NC(=O)[C@H]2CC[C@@H](n3c(=O)[nH]c4c(Cl)cccc43)CC2)cc1 [Example 149, (Cis)-4-(4-chloro-2-oxo-2,3-dihydro-1H-1,3-benzodiazol-1-yl)-N-(4-methylphenyl)cyclohexane-1-carboxamide] | 16.7 | 0.086 | 33.7 |  | 
O=c1[nH]c2c(Cl)cccc2n1[C@H]1CC[C@@H](C(=O)Nc2ccc3cc[nH]c3c2)CC1 [Example 148, (Cis)-4-(4-chloro-2-oxo-2,3-dihydro-1H-1,3-benzodiazol-1-yl)-N-(1H-indol-6-yl)cyclohexane-1-carboxamide] | 15.7 | 0.098 | 31.7 |  | 
COc1cc(NC(=O)[C@H]2CC[C@@H](n3c(=O)[nH]c4c(C(=O)NCCN(C)C)cccc43)CC2)ccc1C [Example 228, N-[2-(Dimethylamino)ethyl]-2-oxo-1-[cis-4-[(3-methoxy-4-methylphenyl)carbamoyl]cyclohexyl]-2,3-dihydro-1H-1,3-benzodiazole-4-carboxamide] | 16.4 | 0.00015 | 20.8 | 10.5 | 11.2
COc1ccc(NC(=O)[C@H]2CC[C@@H](n3c(=O)[nH]c4c(Cl)cccc43)CC2)cc1 [Example 147, (Cis)-4-(4-chloro-2-oxo-2,3-dihydro-1H-1,3-benzodiazol-1-yl)-N-(4-methoxyphenyl)cyclohexane-1-carboxamide] | 17.9 | 0.036 | 32.1 |  | 
Cc1cc(NC(=O)[C@H]2CC[C@@H](n3c(=O)[nH]c4c(Br)cccc43)CC2)cnc1Cl [Example 187, Cis-4-(4-bromo-2-oxo-2,3-dihydro-1H-1,3-benzodiazol-1-yl)-N-(6-chloro-5-methylpyridin-3-yl)cyclohexane-1-carboxamide] | 7.9 | 0.338 | 13 |  | 
COc1cc(NC(=O)[C@H]2CC[C@@H](n3c(=O)[nH]c4c(NC(=O)c5cnco5)cccc43)CC2)ccc1C [Example 301, N-{2-Oxo-1-[cis-4-[(3-methoxy-4-methylphenyl)carbamoyl]cyclohexyl]-2,3-dihydro-1H-1,3-benzodiazol-4-yl}-1,3-oxazole-5-carboxamide] | 16.2 | 0.00691 | 43 |  | 
COc1cc(NC(=O)N2C3CCC2CC(n2c(=O)[nH]c4c(-c5ccc(CO)nc5)cccc42)C3)ccc1C (stereo not drawn) [Example 92, 3-{4-[6-(Hydroxymethyl)pyridin-3-yl]-2-oxo-2,3-dihydro-1H-1,3-benzodiazol-1-yl}-N-(3-methoxy-4-methylphenyl)-(endo)-8-azabicyclo[3.2.1]octane-8-carboxamide] | 13.7 | 0.084 | 38.8 |  | 
COc1ccc(NC(=O)[C@H]2CC[C@@H](n3c(=O)[nH]c4c(Br)cccc43)CC2)cc1C(F)(F)F [Example 129, (Cis)-4-(4-bromo-2-oxo-2,3-dihydro-1H-1,3-benzodiazol-1-yl)-N-[4-methoxy-3-(trifluoromethyl)phenyl]cyclohexane-1-carboxamide] | 9.48 | 0.116 | 21.6 |  | 
COc1cc(NC(=O)[C@H]2CC[C@@H](n3c(=O)[nH]c4c(C(=O)NCc5ncccn5)cccc43)CC2)ccc1C [Example 276, 2-Oxo-N-[(pyrimidin-2-yl)methyl]-1-[cis-4-[(3-methoxy-4-methylphenyl)carbamoyl]cyclohexyl]-2,3-dihydro-1H-1,3-benzodiazole-4-carboxamide] | 16.9 | 0.0029 | 54 |  | 
COc1ccc(NC(=O)[C@H]2CC[C@@H](n3c(=O)[nH]c4c(Br)cccc43)CC2)cc1Cl [Example 123, (Cis)-4-(4-bromo-2-oxo-2,3-dihydro-1H-1,3-benzodiazol-1-yl)-N-(3-chloro-4-methoxyphenyl)cyclohexane-1-carboxamide] | 10 | 0.026 | 24.2 |  | 
Cn1ncc2cc(NC(=O)[C@H]3CC[C@@H](n4c(=O)[nH]c5c(Br)cccc54)CC3)ccc21 [Example 171, (Cis)-4-(4-bromo-2-oxo-2,3-dihydro-1H-1,3-benzodiazol-1-yl)-N-(1-methyl-1H-indazol-5-yl)cyclohexane-1-carboxamide] | 17.5 | 0.211 | 41.1 |  | 
O=c1[nH]c2c(Br)cccc2n1[C@H]1CC[C@@H](C(=O)Nc2ccc(F)cc2)CC1 [Example 136, (Cis)-4-(4-bromo-2-oxo-2,3-dihydro-1H-1,3-benzodiazol-1-yl)-N-(4-fluorophenyl)cyclohexane-1-carboxamide] | 8.86 | 0.501 | 23.8 |  | 
Cc1ccc(NC(=O)[C@H]2CC[C@@H](n3c(=O)[nH]c4c(Br)cccc43)CC2)cc1O [Example 221, Cis-4-(4-bromo-2-oxo-2,3-dihydro-1H-1,3-benzodiazol-1-yl)-N-(3-hydroxy-4-methylphenyl)cyclohexane-1-carboxamide] | 7.84 | 0.0272 | 15.2 |  | 
COc1cc(NC(=O)[C@H]2CC[C@@H](n3c(=O)[nH]c4c(N5CCC(N)C5)cccc43)CC2)ccc1C (stereo partly drawn) [Example 282, Cis-4-[4-(3-aminopyrrolidin-1-yl)-2-oxo-2,3-dihydro-1H-1,3-benzodiazol-1-yl]-N-(3-methoxy-4-methylphenyl)cyclohexane-1-carboxamide] | 27.5 | 0.0101 | 28.6 |  | 
COc1cc(NC(=O)[C@H]2CC[C@@H](n3c(=O)[nH]c4c(NC(=O)[C@@H]5C[C@@H](O)CN5)cccc43)CC2)ccc1C [Example 286, (2S,4R)-4-Hydroxy-N-{2-oxo-1-[cis-4-[(3-methoxy-4-methylphenyl)carbamoyl]cyclohexyl]-2,3-dihydro-1H-1,3-benzodiazol-4-yl}pyrrolidine-2-carboxamide] | 20.3 | 0.0181 | > 33 |  | 
COc1cc(NC(=O)[C@H]2CC[C@@H](n3c(=O)[nH]c4c(N5CCCC5)cccc43)CC2)ccc1C [Example 310, Cis-N-(3-methoxy-4-methylphenyl)-4-[2-oxo-4-(pyrrolidin-1-yl)-2,3-dihydro-1H-1,3-benzodiazol-1-yl]cyclohexane-1-carboxamide] | 6.13 | 0.0516 | 13.6 |  | 
COc1cc(NC(=O)[C@H]2CC[C@@H](n3c(=O)[nH]c4c(C(=O)N5CC[C@@H](N(C)C)C5)cccc43)CC2)ccc1C [Example 267, Cis-4-{4-[(3R)-3-(dimethylamino)pyrrolidine-1-carbonyl]-2-oxo-2,3-dihydro-1H-1,3-benzodiazol-1-yl}-N-(3-methoxy-4-methylphenyl)cyclohexane-1-carboxamide] | 17.9 | 0.0824 | 34.1 |  | 
